Target: human DNA (cytosine-5)-methyltransferase I (DNMT1), Δ501DNMT1 (Homo sapiens, UniProt P26358)
Format: biochemical

Sequence of human DNA (cytosine-5)-methyltransferase I (DNMT1), Δ501DNMT1 (P26358 502-1616, stated change not applied): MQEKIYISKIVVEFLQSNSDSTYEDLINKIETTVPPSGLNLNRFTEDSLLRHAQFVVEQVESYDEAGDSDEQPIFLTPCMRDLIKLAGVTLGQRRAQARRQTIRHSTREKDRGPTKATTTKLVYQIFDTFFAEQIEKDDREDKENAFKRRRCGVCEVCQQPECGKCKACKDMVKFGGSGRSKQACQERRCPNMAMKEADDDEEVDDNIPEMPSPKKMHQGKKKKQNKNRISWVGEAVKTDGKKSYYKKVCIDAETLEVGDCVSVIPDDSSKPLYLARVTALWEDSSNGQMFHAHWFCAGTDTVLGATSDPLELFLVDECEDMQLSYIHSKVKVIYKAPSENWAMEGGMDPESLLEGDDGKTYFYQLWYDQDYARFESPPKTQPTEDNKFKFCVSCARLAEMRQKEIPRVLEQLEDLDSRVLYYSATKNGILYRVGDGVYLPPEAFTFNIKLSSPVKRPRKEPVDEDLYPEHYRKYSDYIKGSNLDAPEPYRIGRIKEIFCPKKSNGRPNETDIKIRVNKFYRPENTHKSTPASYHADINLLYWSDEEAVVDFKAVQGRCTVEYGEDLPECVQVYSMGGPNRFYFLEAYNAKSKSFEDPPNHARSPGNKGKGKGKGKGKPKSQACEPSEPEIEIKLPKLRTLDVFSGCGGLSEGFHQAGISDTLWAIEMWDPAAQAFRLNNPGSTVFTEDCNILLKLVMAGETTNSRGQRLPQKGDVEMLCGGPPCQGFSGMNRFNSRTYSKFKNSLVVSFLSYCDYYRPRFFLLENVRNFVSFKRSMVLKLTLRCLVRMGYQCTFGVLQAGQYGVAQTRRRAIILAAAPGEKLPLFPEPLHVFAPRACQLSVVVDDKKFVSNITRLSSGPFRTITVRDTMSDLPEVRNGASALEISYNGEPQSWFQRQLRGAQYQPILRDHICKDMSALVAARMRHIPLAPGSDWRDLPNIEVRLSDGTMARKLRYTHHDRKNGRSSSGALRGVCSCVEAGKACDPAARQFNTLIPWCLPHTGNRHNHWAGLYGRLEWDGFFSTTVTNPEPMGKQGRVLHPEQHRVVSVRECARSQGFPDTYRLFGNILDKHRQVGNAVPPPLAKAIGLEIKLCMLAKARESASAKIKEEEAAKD

Nc1ncnc2c1ncn2[C@@H]1O[C@H](CO)[C@@H](O)[C@H]1O [adenosine]
IC50: 3 mM
